Laboratory results taken from article PMC5352738, “Characterization of three pyranose dehydrogenase isoforms from the litter-decomposing basidiomycete Leucoagaricus meleagris (syn. Agaricus meleagris)” (Applied Microbiology and Biotechnology, 2016).
Each block holds one compound with its values, some of them ahead of it.

Columns and labels:
Format in all cases: biochemical
[1] = target: T1, AmPDH1 (Macropsalliota meleagris, UniProt Q3L245); assay: steady-state kinetics, absorbance at […] nm; settings: read-out: AmPDH1 / K m
T1 construct: gene pdh1; full-length pdh1 (602 aa precursor) in pPICZB-His6, His6-tag kept, secreted from Pichia pastoris X33; N-glycosylated monomer, ~65 kDa deglycosylated; covalent FAD

[2] = target: T1, AmPDH1; assay: steady-state ferrocenium assay, […] nm; settings: electron donor; 0.2 mM ferrocenium, 50 mM Na phosphate pH 7.5, 30 °C; read-out: AmPDH1 / K m
[3] = target: T2, AmPDH2 (Macropsalliota meleagris, UniProt Q3L243); assay: steady-state kinetics, absorbance at […] nm; settings: electron acceptor; 25 mM D-glucose, 100 mM Na borate pH 8.5, 30 °C; read-out: AmPDH2 / K m
T2 construct: gene pdh2; full-length pdh2 (600 aa precursor) in pPICZB-His6, His6-tag kept, secreted from Pichia pastoris X33; N-glycosylated, ~65 kDa deglycosylated; covalent FAD

[4] = target: T3, AmPDH3 (Macropsalliota meleagris, UniProt Q0R4L2); assay: steady-state kinetics, absorbance at […] nm; settings: electron acceptor; 25 mM D-glucose, 100 mM Na borate pH 8.5, 30 °C; read-out: AmPDH3 / K m
T3 construct: gene pdh3; full-length pdh3 (600 aa precursor) in pPICZB-His6, His6-tag kept, secreted from Pichia pastoris X33; strongly N-glycosylated, ~65 kDa deglycosylated; standard yellow form with covalent FAD

[5] = target: T1, AmPDH1; assay: steady-state kinetics, absorbance at […] nm; settings: electron acceptor; 25 mM D-glucose, 100 mM Na borate pH 8.5, 30 °C; read-out: AmPDH1 / K m

T1 sequence (Q3L245 26-602): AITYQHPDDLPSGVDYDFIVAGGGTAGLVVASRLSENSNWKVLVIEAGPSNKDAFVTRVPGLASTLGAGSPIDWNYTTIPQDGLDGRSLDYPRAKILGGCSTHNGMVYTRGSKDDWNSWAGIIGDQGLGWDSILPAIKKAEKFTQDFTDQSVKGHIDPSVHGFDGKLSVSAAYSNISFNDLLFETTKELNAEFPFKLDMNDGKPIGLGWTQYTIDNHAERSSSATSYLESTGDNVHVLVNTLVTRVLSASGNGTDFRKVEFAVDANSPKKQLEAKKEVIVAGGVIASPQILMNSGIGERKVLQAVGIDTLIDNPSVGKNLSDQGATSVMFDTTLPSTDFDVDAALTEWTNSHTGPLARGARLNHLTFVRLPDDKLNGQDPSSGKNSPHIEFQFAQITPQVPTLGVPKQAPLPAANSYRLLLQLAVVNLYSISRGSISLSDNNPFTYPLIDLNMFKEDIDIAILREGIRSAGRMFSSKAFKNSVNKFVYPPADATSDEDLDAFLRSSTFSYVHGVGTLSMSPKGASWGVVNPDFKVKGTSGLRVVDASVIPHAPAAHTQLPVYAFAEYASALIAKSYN
T3 sequence (Q0R4L2 26-600): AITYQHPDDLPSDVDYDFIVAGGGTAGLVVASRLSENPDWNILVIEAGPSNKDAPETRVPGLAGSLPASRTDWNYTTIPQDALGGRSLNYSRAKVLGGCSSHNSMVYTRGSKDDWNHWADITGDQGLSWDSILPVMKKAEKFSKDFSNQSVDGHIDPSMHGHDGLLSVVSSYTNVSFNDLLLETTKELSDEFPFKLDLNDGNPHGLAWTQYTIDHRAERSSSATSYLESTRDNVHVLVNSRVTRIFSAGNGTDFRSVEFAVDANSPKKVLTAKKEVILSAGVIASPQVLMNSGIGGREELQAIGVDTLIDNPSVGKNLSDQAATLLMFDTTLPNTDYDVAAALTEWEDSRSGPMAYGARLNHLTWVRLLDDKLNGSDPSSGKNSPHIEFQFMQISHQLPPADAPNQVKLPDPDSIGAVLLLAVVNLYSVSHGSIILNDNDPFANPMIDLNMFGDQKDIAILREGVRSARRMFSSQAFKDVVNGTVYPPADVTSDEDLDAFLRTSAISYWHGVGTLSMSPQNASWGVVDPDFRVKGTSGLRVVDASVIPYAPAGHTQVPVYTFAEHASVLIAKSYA
T2 sequence (Q3L243 26-600): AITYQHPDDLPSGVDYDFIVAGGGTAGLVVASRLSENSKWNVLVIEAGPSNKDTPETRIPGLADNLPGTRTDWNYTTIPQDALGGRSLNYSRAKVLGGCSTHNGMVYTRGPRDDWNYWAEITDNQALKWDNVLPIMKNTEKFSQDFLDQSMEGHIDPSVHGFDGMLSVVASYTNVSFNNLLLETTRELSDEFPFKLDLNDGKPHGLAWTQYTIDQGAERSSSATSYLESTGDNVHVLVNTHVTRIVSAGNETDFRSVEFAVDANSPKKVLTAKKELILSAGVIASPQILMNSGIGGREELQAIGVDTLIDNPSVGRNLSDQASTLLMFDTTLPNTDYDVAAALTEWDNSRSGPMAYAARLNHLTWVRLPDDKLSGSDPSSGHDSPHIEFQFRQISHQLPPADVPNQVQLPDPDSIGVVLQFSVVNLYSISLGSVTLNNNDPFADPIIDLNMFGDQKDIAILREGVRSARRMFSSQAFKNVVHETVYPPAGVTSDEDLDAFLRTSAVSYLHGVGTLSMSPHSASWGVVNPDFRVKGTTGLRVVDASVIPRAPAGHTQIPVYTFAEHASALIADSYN

SMILES: O=C1C=CC(=O)C=C1 [1,4-benzoquinone]
- Km [1]: 1380 ± 280 µM

- Km [2]: 820 ± 10 µM
SMILES: OC[C@H]1OC(O)[C@H](O)[C@@H](O)[C@@H]1O (stereo partly drawn) [D-glucose]

- Km [3]: 20.1 ± 2.3 µM
- Km [4]: 10.3 ± 0.9 µM
- Km [5]: 161 ± 38 µM
SMILES: C1=CCC=C1.C1=CCC=C1.[Fe+3] [ferrocenium cation]
